Data on one compound can be found in patent US12187718B1, “1-cyclopropyl-6-fluoro-7-(4-((5-(4-methoxybenzylideneamino)-2-thioxo-1,3,4-thiadiazol-3(2H)-yl)methyl)piperazin-1-yl)-4-oxo-1,4-dihydroquinoline-3-carboxylic acid as an anti-inflammatory and anticancer compound” (KING FAISAL UNIVERSITY, priority 2023, dated 2025).

For experiment [1], the system named is human osteosarcoma cells (MG-63). In words: Cytotoxicity by SRB assay, MG-63 cells. It counts as cell-based. The settings on record: osteosarcoma (MG-63) cells, 72 h, 0.01 μM to 100 μM. As for the experimental part: (§1) The human prostate cancer cells (PC3) and human osteosarcoma cells (MG-63) were obtained from Nawah Scientific Inc. (Mokatam, Cairo, Egypt) and cultured in DMEM (Dulbecco's modified eagle's medium), Gibco, USA, supplemented with fetal bovine serum (FBS) at a concentration of 10% and 100 U/mL of penicillin and streptomycin (PS). The Cells were incubated at 37° C. in a humidified environment that contained 5% CO2.
(§2) Cells were seeded in 96-well plates as aliquots of 100 μL cell suspension and incubated in a complete media for 24 h. afterward, cells were treated with N′-(1-naphthoyloxy)-2-(benzo[d]thiazol-2-yl)acetimidamide at diverse concentrations ranging from 0.01 μM to 100 μM for 72 h. Then, cells were fixed at 4° C. for one hour with 150 μL of 10% trichloroacetic acid (TCA). After washing the cells five times with distilled water, 70 μL of sulforhodamine (SRB) solution (0.4% w/v) was added and incubated for 10 min at room temperature in a dark place. […] Then, 150 μL of Tris pH 10.5 (10 mM) was added, and the absorbance was measured at 540 nm using a BMG LABTECH®-FLUOstar Omega microplate reader (Ortenberg, Germany). Half maximal inhibitory concentrations (IC50) values were calculated for each experiment using GraphPad Prism 6 software. […]
(§3) The inhibition was calculated using the following equation: Inhibition %=100−Average Viability

The target in another experiment is Bovine Serum Albumin (Bos taurus, UniProt P02769). In words: Bovine Serum Albumin Assay (BSA), inhibition of protein denaturation. It counts as biochemical. The settings on record: BSA 0.4% w/v, pH 6.4, 72° C. for 10 minutes, 20-100 μg/mL, turbidity at 660 nm. As for the experimental part:
In vitro-inflammatory activities of the tested samples were determined using a modified method of the BSA assay reported by Williams et al. BSA solution (0.4%, w/v) was prepared in Tris Buffered Saline. The pH was adjusted to 6.4 with glacial acetic acid. Different dilutions of 20, 40, 60, 80, and 100 μg/mL of the stock solutions were added to test tubes containing 1 mL of 0.4%, w/v BSA buffer solution. Both negative (solvent) and positive (aspirin) controls were assayed in a similar manner. The solutions were then heated in a water bath at 72° C. for 10 minutes and cooled for 20 minutes under laboratory conditions. The turbidity of the solutions (level of protein precipitation) was measured at 660 nm in Spectrophotometer (V-770 UV-Visible/NIR Spectrophotometer).
The percentage inhibition of precipitation (protein denaturation) was determined relative to the negative control using the following equation:
[formula] % Anti-Denaturation Activity=% Inhibition of Protein Denaturation=% Anti-inflammatory Activity

The test system of experiment [2] is human prostate cancer cells (PC3). In words: Cytotoxicity by SRB assay, PC3 cells. It counts as cell-based. The settings on record: androgen-independent metastatic human prostate cancer cells (PC3), 72 h, 0.01 μM to 100 μM. As for the experimental part:
as §1, §2, §3
(The SRB assay estimates cell density from bound dye.)

Bovine Serum Albumin, sequence (P02769 25-607): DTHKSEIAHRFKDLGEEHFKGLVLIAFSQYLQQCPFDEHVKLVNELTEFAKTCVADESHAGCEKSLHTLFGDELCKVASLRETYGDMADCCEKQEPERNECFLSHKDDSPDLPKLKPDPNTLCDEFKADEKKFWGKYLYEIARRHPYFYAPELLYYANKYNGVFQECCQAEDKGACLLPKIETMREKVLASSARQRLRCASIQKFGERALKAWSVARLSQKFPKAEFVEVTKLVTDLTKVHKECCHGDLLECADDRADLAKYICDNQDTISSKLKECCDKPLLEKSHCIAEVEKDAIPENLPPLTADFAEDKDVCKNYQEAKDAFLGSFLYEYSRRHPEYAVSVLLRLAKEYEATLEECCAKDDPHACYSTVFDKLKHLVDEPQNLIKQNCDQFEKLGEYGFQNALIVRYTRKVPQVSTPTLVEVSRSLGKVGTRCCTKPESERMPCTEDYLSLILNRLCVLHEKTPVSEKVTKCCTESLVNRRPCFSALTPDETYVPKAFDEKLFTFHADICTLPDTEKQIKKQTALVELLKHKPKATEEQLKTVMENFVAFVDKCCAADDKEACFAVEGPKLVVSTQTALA

In the case of `COc1ccc(/C=N/c2nn(CN3CCN(c4cc5c(cc4F)c(=O)c(C(=O)O)cn5C4CC4)CC3)c(=S)s2)cc1` [1-cyclopropyl-6-fluoro-7-(4-((5-(4-methoxybenzylideneamino)-2-thioxo-1,3,4-thiadiazol-3(2H)-yl)methyl)piperazin-1-yl)-4-oxo-1,4-dihydroquinoline-3-carboxylic acid], the “antiproliferative activity against MG-63 cells” value in experiment [1] was “excellent antiproliferative activities”. On Bovine Serum Albumin, the “in vitro anti-inflammatory activity (inhibition of protein denaturation)” value is given as “considerable anti-inflammatory effect”. The “antiproliferative activity against PC3 cells” value in experiment [2] is “excellent antiproliferative activities”.
